Measurements from US20240400564A1 (Syndax Pharmaceuticals, Inc, priority 2021, published 2024).

Tests used:
[1] = target: T1, human Menin and N-terminal portion of human MLL (amino acids 4-43) (Homo sapiens, UniProt O00255); assay: Menin-MLL competition assay (HTRF); format: binding; settings: 1 hr incubation
T1 construct: H-FL-Menin diluted to 4 nM in assay buffer
T1 sequence (O00255 1-610): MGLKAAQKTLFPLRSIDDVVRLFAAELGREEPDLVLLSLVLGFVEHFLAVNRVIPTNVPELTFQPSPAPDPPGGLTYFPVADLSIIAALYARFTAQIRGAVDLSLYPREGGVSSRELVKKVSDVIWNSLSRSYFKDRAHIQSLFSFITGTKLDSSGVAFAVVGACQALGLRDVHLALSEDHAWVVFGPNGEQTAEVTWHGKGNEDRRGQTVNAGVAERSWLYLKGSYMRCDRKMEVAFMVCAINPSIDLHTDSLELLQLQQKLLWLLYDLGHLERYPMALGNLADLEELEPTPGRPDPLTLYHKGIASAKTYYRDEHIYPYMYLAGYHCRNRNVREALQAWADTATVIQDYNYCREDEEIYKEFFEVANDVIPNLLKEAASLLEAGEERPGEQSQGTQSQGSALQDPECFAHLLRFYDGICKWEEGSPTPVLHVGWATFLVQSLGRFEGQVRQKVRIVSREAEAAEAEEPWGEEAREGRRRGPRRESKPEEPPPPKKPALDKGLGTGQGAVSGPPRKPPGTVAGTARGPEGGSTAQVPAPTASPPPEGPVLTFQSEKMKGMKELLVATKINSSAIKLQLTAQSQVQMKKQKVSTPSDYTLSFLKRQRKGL
Source text: Menin-MLL is a competition assay between human Menin and N-terminal portion of human MLL representing amino acids 4-43 of the protein. The interaction between Menin and MLL peptide was monitored by HTRF employing Terbium labeled anti-His6 antibody directed to the N-terminal His6-tag on recombinant Menin and FITC group covalently attached to the MLL peptide. The N-terminal fragment of MLL, retained in all MLL fusion proteins, is involved in the interactions with Menin, and this protein-protein interaction is critical for the MLL fusion proteins mediated leukemogenic transformations.
For IC50 determination test compounds were prepared as 10 mM DMSO stock solutions. Considering DMSO as the vehicle in the assay system. Lower sub-stocks of 50 μM were prepared from the 10 mM stock solution. To test the compounds in assay, 3.16-fold serial dilutions are made in 100% DMSO. Mid-stock of 50×compounds (50 μM) were serially diluted (3.16 fold) in 100% DMSO in Polypropylene plate. In assay plate 1 micro-litre of the previously prepared compound dilution was stamped. H-FL-Menin diluted to 4 nM in assay buffer (50 mM Tris-HCl, pH 7.4, 50 mM NaCl, freshly prepared 1 mM DTT, 0.01% BSA, 0.005% Triton X-100) was pre-incubated with 8 nM anti-His6-Tb for 30 min at room temperature. FITC-MLL-4-43 was diluted to 2 nM in assay buffer and 25 μL was dispensed into each well of the assay plate followed by addition of 25 μl of pre-incubated H-FL-Menin and anti-His6-Tb mixture. Final concentration H-FL-Menin diluted to 1 nM in assay plate with 2 nM anti-His6-Tb and 1 nM FITC-MLL-4-43. After 1 hr incubation at room temperature, the HTRF signal was measured on the Spark multi-label plate reader. Resulting data were captured as a ratio of RFU520/RFU485×1000. The max values were obtained from 0% inhibition in presence of 2% DMSO and the min. values were 100% inhibition in presence of 1 μM reference compound.

[2] = test system: MLLr leukemia cell line MV4-11; assay: Cell proliferation assay MV4;11 (CellTiter-Glo, 72 hours); format: cell-based; settings: Homo sapiens; MV4-11 cells, 72 hours, CellTiter-Glo; read-out: MV4; 11 IC50
How it was run: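 Cells in IMDM/10% FBS, seeded from a 15,000 cells/ml suspension, were exposed for 72 h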

hERG = hERG (Homo sapiens, UniProt Q12809); assay: Patch clamp assay (hERG tail currents, whole-cell)
Chain of hERG (Q12809 whole entry): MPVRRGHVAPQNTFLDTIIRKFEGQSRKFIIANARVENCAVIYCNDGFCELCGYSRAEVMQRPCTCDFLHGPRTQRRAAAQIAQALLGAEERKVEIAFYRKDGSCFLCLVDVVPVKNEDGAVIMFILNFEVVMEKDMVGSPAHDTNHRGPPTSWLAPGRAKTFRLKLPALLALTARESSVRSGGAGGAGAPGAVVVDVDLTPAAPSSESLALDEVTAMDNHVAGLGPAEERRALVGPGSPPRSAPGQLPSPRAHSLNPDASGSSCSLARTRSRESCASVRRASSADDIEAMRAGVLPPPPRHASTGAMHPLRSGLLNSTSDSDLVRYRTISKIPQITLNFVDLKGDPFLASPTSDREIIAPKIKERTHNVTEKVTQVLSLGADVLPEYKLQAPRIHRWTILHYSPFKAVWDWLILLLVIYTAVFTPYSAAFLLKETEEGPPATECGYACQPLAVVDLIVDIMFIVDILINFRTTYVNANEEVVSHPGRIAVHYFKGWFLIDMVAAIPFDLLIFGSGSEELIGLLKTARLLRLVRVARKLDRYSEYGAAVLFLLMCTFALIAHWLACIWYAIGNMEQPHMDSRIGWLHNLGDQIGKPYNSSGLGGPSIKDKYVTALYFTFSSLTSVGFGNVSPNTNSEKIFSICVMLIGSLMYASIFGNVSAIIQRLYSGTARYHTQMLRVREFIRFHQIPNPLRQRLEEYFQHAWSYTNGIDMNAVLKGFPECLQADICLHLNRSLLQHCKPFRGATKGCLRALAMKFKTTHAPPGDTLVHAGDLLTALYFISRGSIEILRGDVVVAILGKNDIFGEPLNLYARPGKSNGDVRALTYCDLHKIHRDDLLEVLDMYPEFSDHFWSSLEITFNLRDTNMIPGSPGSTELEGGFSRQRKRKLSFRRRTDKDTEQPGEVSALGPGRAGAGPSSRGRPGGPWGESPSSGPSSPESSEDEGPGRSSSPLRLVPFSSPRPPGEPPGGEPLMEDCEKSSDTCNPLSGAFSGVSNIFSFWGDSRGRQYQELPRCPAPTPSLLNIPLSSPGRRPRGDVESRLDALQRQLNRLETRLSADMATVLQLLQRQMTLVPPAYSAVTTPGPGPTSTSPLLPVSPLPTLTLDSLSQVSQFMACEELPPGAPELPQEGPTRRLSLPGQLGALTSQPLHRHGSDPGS

Structure (SMILES)	IC50 [1] [nM]	IC50 [2] [nM]	hERG % Remaining (hERG; 30 μM compound)	hERG % Remaining (hERG; 10 μM compound)
CCS(=O)(=O)N[C@@H]1CC[C@@H](CN2CCC3(CC2)CN(c2ncncc2Oc2ccc(F)cc2C(=O)N(CCOC)C(C)C)C3)OC1 [Example 35, 2-((4-(7-(((2S,5R)-5-(Ethylsulfonamido)tetrahydro-2H-pyran-2-yl)methyl)-2,7-diazaspiro[3.5]nonan-2-yl)pyrimidin-5-yl)oxy)-5-fluoro-N-isopropyl-N-(2-methoxyethyl)benzamide]	< 100			
CC(C)N(C(=O)c1cc(F)ccc1Oc1cncnc1N1CC2(CCN(C[C@@H]3CC[C@@H](NS(=O)(=O)C4COC4)CO3)CC2)C1)C1CC1 [Example 22, N-Cyclopropyl-5-fluoro-N-isopropyl-2-((4-(7-(((2S,5R)-5-(oxetane-3-sulfonamido)tetrahydro-2H-pyran-2-yl)methyl)-2,7-diazaspiro[3.5]nonan-2-yl)pyrimidin-5-yl)oxy)benzamide]	< 100			
CCS(=O)(=O)N[C@@H]1CC[C@@H](CN2CCC3(CC2)CN(c2ncncc2Oc2ccc(F)cc2C(=O)N(C(C)C)C2COC2)C3)OC1 [Example 48, 2-((4-(7-(((2S,5R)-5-(Ethylsulfonamido)tetrahydro-2H-pyran-2-yl)methyl)-2,7-diazaspiro[3.5]nonan-2-yl)pyrimidin-5-yl)oxy)-5-fluoro-N-isopropyl-N-(oxetan-3-yl)benzamide]	< 100			
CCS(=O)(=O)N[C@@H]1CC[C@@H](CN2CCC3(CC2)CN(c2ncncc2Oc2ccc(F)cc2C(=O)N2[C@H](C)COC[C@H]2C)C3)OC1 [Example 29, N-((3R,6S)-6-((2-(5-(2-((3R,5R)-3,5-Dimethylmorpholine-4-carbonyl)-4-fluorophenoxy)pyrimidin-4-yl)-2,7-diazaspiro[3.5]nonan-7-yl)methyl)tetrahydro-2H-pyran-3-yl)ethanesulfonamide]	< 100			
CCS(=O)(=O)N[C@@H]1CC[C@@H](CN2CCC3(CC2)CN(c2ncncc2Oc2ccc(F)cc2C(=O)N2[C@H](C)CCC[C@@H]2C)C3)OC1 [Example 36, N-((3R,6S)-6-((2-(5-(2-((2S,6R)-2,6-Dimethylpiperidine-1-carbonyl)-4-fluorophenoxy)pyrimidin-4-yl)-2,7-diazaspiro[3.5]nonan-7-yl)methyl)tetrahydro-2H-pyran-3-yl)ethanesulfonamide]	< 100			
CCCS(=O)(=O)N[C@@H]1CC[C@@H](CN2CCC3(CC2)CN(c2ncncc2Oc2ccc(F)cc2C(=O)N(CC)C(C)C)C3)OC1 [Example 9, N-Ethyl-5-fluoro-N-isopropyl-2-((4-(7-(((2S,5R)-5-(propylsulfonamido)tetrahydro-2H-pyran-2-yl)methyl)-2,7-diazaspiro[3.5]nonan-2-yl)pyrimidin-5-yl)oxy)benzamide]	< 100			
CCN(C(=O)c1cc(F)ccc1Oc1cncnc1N1CC2(CCN(C[C@@H]3CC[C@@H](NS(=O)(=O)C(C)C)CO3)CC2)C1)C(C)C [Example 3, N-Ethyl-5-fluoro-N-isopropyl-2-((4-(7-(((2S,5R)-5-((1-methylethyl)sulfonamido)tetrahydro-2H-pyran-2-yl)methyl)-2,7-diazaspiro[3.5]nonan-2-yl)pyrimidin-5-yl)oxy)benzamide]	< 100			
CO[C@@H]1CCN(S(=O)(=O)N[C@@H]2CC[C@@H](CN3CCC4(CC3)CN(c3ncncc3Oc3ccc(F)cc3C(=O)N(C(C)C)C(C)C)C4)OC2)C1 [Example 211, 5-Fluoro-N,N-diisopropyl-2-((4-(7-(((2S,5R)-5-(((R)-3-methoxypyrrolidine)-1-sulfonamido)tetrahydro-2H-pyran-2-yl)methyl)-2,7-diazaspiro[3.5]nonan-2-yl)pyrimidin-5-yl)oxy)benzamide]		< 100	+++ (≥66%)	
C[C@@H]1COC[C@@H](C)N1C(=O)c1cc(F)ccc1Oc1cncnc1N1CC2(CCN(C[C@@H]3CC[C@@H](NS(=O)(=O)N4CCC[C@H]4C)CO3)CC2)C1 [Example 208, (R)-N-((3R,6S)-6-((2-(5-(2-((3R,5R)-3,5-Dimethylmorpholine-4-carbonyl)-4-fluorophenoxy)pyrimidin-4-yl)-2,7-diazaspiro[3.5]nonan-7-yl)methyl)tetrahydro-2H-pyran-3-yl)-2-methylpyrrolidine-1-sulfonamide]		< 100	+++ (≥66%)	
CC(C)N(C(=O)c1cc(F)ccc1Oc1cncnc1N1CC2(CCN(C[C@@H]3CC[C@@H](NS(=O)(=O)c4cnn(C)c4)CO3)CC2)C1)C1CC(F)(F)C1 [Example 156, N-(3,3-Difluorocyclobutyl)-5-fluoro-N-isopropyl-2-((4-(7-(((2S,5R)-5-((1-methyl-1H-pyrazole)-4-sulfonamido)tetrahydro-2H-pyran-2-yl)methyl)-2,7-diazaspiro[3.5]nonan-2-yl)pyrimidin-5-yl)oxy)benzamide]		< 100	+++ (≥66%)	
Cc1ncc(S(=O)(=O)N[C@@H]2CC[C@@H](CN3CCC4(CC3)CN(c3ncncc3Oc3ccc(F)cc3C(=O)N(C(C)C)C(C)C)C4)OC2)o1 [Example 80, 5-Fluoro-N,N-diisopropyl-2-((4-(7-(((2S,5R)-5-((2-methyloxazole)-5-sulfonamido)tetrahydro-2H-pyran-2-yl)methyl)-2,7-diazaspiro[3.5]nonan-2-yl)pyrimidin-5-yl)oxy)benzamide]		< 100	+ (<33%)	++ (233% and ≤66%)
CC(C)N(C(=O)c1cc(F)ccc1Oc1cncnc1N1CC2(CCN(C[C@@H]3CC[C@@H](NS(=O)(=O)N4CCC[C@@H]4C)CO3)CC2)C1)C(C)C [Example 202, 5-Fluoro-N,N-diisopropyl-2-((4-(7-(((2S,5R)-5-(((S)-2-methylpyrrolidine)-1-sulfonamido)tetrahydro-2H-pyran-2-yl)methyl)-2,7-diazaspiro[3.5]nonan-2-yl)pyrimidin-5-yl)oxy)benzamide]		< 100	+ (<33%)	
CCN(C(=O)c1cc(F)ccc1Oc1cncnc1N1CC2(CCN(C[C@@H]3CC[C@@H](NS(=O)(=O)c4ccc(=O)[nH]c4C)CO3)CC2)C1)C(C)C [Example 217, N-Ethyl-5-fluoro-N-isopropyl-2-((4-(7-(((2S,5R)-5-((2-methyl-6-oxo-1,6-dihydropyridine)-3-sulfonamido)tetrahydro-2H-pyran-2-yl)methyl)-2,7-diazaspiro[3.5]nonan-2-yl)pyrimidin-5-yl)oxy)benzamide]		< 100	+++ (≥66%)	
CO[C@H]1CCN(S(=O)(=O)N[C@@H]2CC[C@@H](CN3CCC4(CC3)CN(c3ncncc3Oc3ccc(F)cc3C(=O)N(C(C)C)C(C)C)C4)OC2)C1 [Example 210, 5-Fluoro-N,N-diisopropyl-2-((4-(7-(((2S,5R)-5-(((S)-3-methoxypyrrolidine)-1-sulfonamido)tetrahydro-2H-pyran-2-yl)methyl)-2,7-diazaspiro[3.5]nonan-2-yl)pyrimidin-5-yl)oxy)benzamide]		< 100	+++ (≥66%)	
CCN(C(=O)c1cc(F)ccc1Oc1cncnc1N1CC2(CCN(C[C@@H]3CC[C@@H](NS(=O)(=O)c4c[nH]c(=O)c(C)c4)CO3)CC2)C1)C(C)C [Example 218, N-Ethyl-5-fluoro-N-isopropyl-2-((4-(7-(((2S,5R)-5-((5-methyl-6-oxo-1,6-dihydropyridine)-3-sulfonamido)tetrahydro-2H-pyran-2-yl)methyl)-2,7-diazaspiro[3.5]nonan-2-yl)pyrimidin-5-yl)oxy)benzamide]		< 100	+ (<33%)	
